1 substance from patent publication US10933111B2, “Treating dry eye disorders” (Boston Biotechnology US CORP, priority 2019, dated 2021) can be followed below.

In the assay the test system is patients with dry eye disorder and other eye symptoms. The experiment in a line: Clinical usage of deacidified coconut oil for treating eye diseases or disorders (three patients). Type of assay: in vivo, human. Conditions: before deacidified coconut oil. How it is done:
The deacidified coconut oil was initially developed for treating the dry eye disorder. As the research continued, it was determined that the deacidified coconut oil can also be used to treat asthenopia, impaired vision, blurred vision, photophobia, astigmatism, and blepharitis. As shown in the following cases, the deacidified coconut oil was successfully administered to three patients with positive outcomes.
[…] […] […] […] […] In 2013-2014, the patient developed additional eye symptoms including astigmatism, blepharitis, anxiety and body weight loss (e.g., about 10 kilograms). In 2015, the patient used the deacidified coconut oil as described herein as eye drops, placed the thermal pad as described herein on the eyes, and took herb composition as described herein. […] In 2019, the symptoms of dry eye disorder including pain, dryness, redness, foreign matter sensation and insomnia were gone. In addition, symptoms such as repetitive visual fatigue, decreased vision, blurred vision, photophobia, sensitivity to wind, astigmatism, and eyelid inflammation disappeared. The patient's overall vision condition improved relative to that in 2015. The eyeglass prescription for both eyes decreased by 1.50-2.00.
The second patient, person. […]

With “Recombinant Bovine Basic Fibroblast Growth Factor Eye Drops: Recombinant Bovine Basic Fibroblast Growth Factor Eye Drops”, the “effect of earlier treatment, second patient” value is “No significant improvement was observed”.
